In patent publication US11168319B1, “Plant cell culture” (Inari Agriculture Technology, Inc., priority 2017, dated 2021):
Where “and” joins values, the source holds several entries; their conditions need not be identical. Identical values can stand only once.

Experiments:
maize A188 protoplasts [1] = experiment: Protoplast viability (Evans blue staining / light microscope / hemocytometer); assay type: cell-based; details: for Viability (%): 100 mM Ca; for viability / appearance: 50 millimolar; for protoplast viability: 288 hours, YPIM B- medium
Method: Separate suspensions of maize B73 and A188 protoplasts (2×10^5 cells per milliliter) were prepared in YPIM B-liquid medium containing various combinations of the added salts calcium chloride, potassium ascorbate, and magnesium chloride or magnesium sulfate. One-half milliliter aliquots of the suspensions were dispensed into a 24-well microtiter plate in the arrangement shown in Table 2, which lists the concentrations of calcium chloride (“Ca”), potassium ascorbate (“A”), and magnesium chloride (“MgCl2”) or magnesium sulfate (“MgSO4”) in millimolar values.
Viability was judged by Evans blue staining and visualization under a light microscope.
Separate suspensions of maize A188 protoplasts (2×10^5 cells per milliliter) were prepared in YPIM B-liquid medium containing calcium chloride at 0 or 50 millimolar. One-half milliliter aliquots of the suspensions were dispensed into a 24-well microtiter plate.
(§1) Viability was judged by visualization under a light microscope.
Separate suspensions of maize B73 and A188 protoplasts (2×10^5 cells per milliliter) were prepared in PIM B-liquid medium (identical to YPIM B-medium except with the 6-benzylaminopurine substituted with 0.022 milligrams/L thidiazuron) containing calcium chloride added at 0 or 50 millimolar. One-half milliliter aliquots of the suspensions were dispensed into a 24-well microtiter plate.
Separate suspensions of maize B73 and A188 protoplasts (2×10^5 cells per milliliter) were prepared in YPIM B-liquid medium containing (a) calcium chloride added at 100 millimolar, or (b) 1 millimolar glutathione, or (c) no added calcium or glutathione. One-milliliter aliquots of the suspensions were dispensed into a 24-well microtiter plate. At 16, 40, 64, and 136 hours of culture, 50-microliter samples were taken for hemocytometer analysis from each well; for the plates containing maize A188 protoplasts, parallel 50-microliter samples were taken from a replicate well at 16, 40, and 64 hours of culture for quantification using a Cellometer cell counter (Nexcelom Bioscience LLC, Lawrence, Mass.).
Viability was determined by Evans blue staining and quantification using a hemocytometer. Under conditions with high concentrations of calcium, Evans blue can create precipitates that interfere with cell counting; to prevent this, 5 microliters of an EDTA solution was added to the samples from the wells containing 100 millimolar calcium chloride immediately prior to staining.

soybean protoplasts = experiment: Protoplast viability (Evans blue staining, light microscope); assay type: cell-based
Method: (§3) Separate suspensions of maize B73, winter wheat, soy, and strawberry protoplasts (2×10^5 cells per milliliter) were prepared in YPIM B-liquid medium containing calcium chloride at 0, 50, or 100 millimolar. One-half milliliter aliquots of the suspensions were dispensed into a 24-well microtiter plate.
Viability at day 13 was judged by Evans blue staining and visualization under a light microscope.

[2] = tested on: winter wheat, soy, and strawberry protoplasts; experiment: Protoplast viability by light microscope, other species; assay type: cell-based; details: day 8, 0, 50 or 100 millimolar calcium
Method: as §3
Viability at day 8 of culture was judged by visualization under a light microscope.

[3] = tested on: maize protoplasts (A188, B73, B104, HiIIA, HiIIB); experiment: Protoplast viability by light microscope, five maize germplasm lines; assay type: cell-based; details: 34 hours, across the five maize lines
Description: as §1

maize A188 protoplasts [4] = experiment: Signs of cell division by microscopy under 5% or 21% oxygen; assay type: cell-based; details: day 8, 100 millimolar Ca^2+ in YPIM B-, 5% oxygen vs 21% oxygen by volume
Method: (§2) Cell division was monitored, e.g., by microscopic observations. […] Evidence of cell division was observed by microscopy and included increased cell or protoplast size, bulging membranes, and large groups of organelles occupying the separating daughter cells. Quantification of cell division was carried out using fluorescent staining. Cells were treated with the thymidine analogue 5-ethynyl-2′-deoxyuridine (EdU), which is incorporated into DNA during S-phase and can be fluorescently activated using a fluorochrome that has been conjugated to an azide molecule. Cells that are the result of cellular division in the presence of EdU were identified by the resulting green fluorescent signal, which can be quantified by various means, e.g., with a microplate reader, cell counter, or cell sorter.
In one experiment, maize A188 protoplasts were grown under either 5% or 21% oxygen by volume in YPIM B-liquid medium containing 100 millimolar Ca^2+.

maize HiIIA protoplasts = experiment: Cell division rate by EdU staining (% EdU); assay type: cell-based; details: 100 mM Ca^2+
Method: as §2
In a separate experiment, maize HiIIA protoplasts were grown in 24-well plates using YPIM B-liquid medium containing 100 millimolar Ca^2+ and 20 micromolar EdU. Identical plates were incubated under hypoxia (5% oxygen by volume, 26 degrees Celsius, 80% relative humidity) or ambient oxygen (21% oxygen by volume, 26 degrees Celsius, 80% relative humidity). Entire wells (250 microliters) were taken for EdU detection at four time points. The contents of each well was centrifuged and the pellet subjected to the Click-iT™ EdU Alexa Fluor™ 488 Imaging Kit (catalogue number C10337, Thermo Fisher Scientific, Waltham, Mass.) fluorescent labelling protocol. The labelled protoplasts were resuspended in YPIM B-medium and samples analyzed on a Nexcelom Cellometer (Nexcelom Bioscience LLC, Lawrence, Mass.). This assay was developed to detect the EdU signal from the nucleus of a cell resulting from cell division, as well as the fluorescent signal from chloroplasts as a measure of total cell count. Results are provided in Table 4 as a percentage of cells displaying the EdU signal relative to the total cell count (“% EdU”).

maize B104 protoplasts = experiment: Cell division rate by EdU staining (% EdU); details: O2 5%, Ca^2+ 100 mM, glutathione 0 mM, 90 h
Method: Cell division rates are expressed as “% EdU” (percentage of cells displaying the EdU signal relative to the total cell count).
Cell division was monitored, e.g., by microscopic observations. […] Evidence of cell division was observed by microscopy and included increased cell or protoplast size, bulging membranes, and large groups of organelles occupying the separating daughter cells. Quantification of cell division was carried out using fluorescent staining. […] Cells that are the result of cellular division in the presence of EdU were identified by the resulting green fluorescent signal, which can be quantified by various means, e.g., with a microplate reader, cell counter, or cell sorter.
Entire wells (1000 microliters) were taken for EdU detection at three time points; analyses were of duplicate samples of each of two replicate wells.

SMILES: [Ca+2].[Cl-].[Cl-] [calcium chloride]
- Viability (%) (maize A188 protoplasts [1]; 0 hours, hemocytometer): 90%
- Viability (%) (maize A188 protoplasts [1]; 16 hours): 67%
- Viability (%) (maize A188 protoplasts [1]; 40 hours): 57%
- Viability (%) (maize A188 protoplasts [1]; 64 hours): 59%
- Viability (%) (maize A188 protoplasts [1]; 136 hours): 46%
- viability / appearance (maize A188 protoplasts [1]; 96 hours, vs no added calcium): appeared healthier
- viability / appearance (maize A188 protoplasts [1]; 168 hours (7 days)): very many large, healthy-looking protoplasts
- protoplast viability (maize A188 protoplasts [1]; 50 mM added salt): about 20%
- protoplast viability (maize A188 protoplasts [1]; 100 mM added salt): about 70%
- viability (maize A188 protoplasts [1]; day 6, PIM B- medium, 50 millimolar calcium, several wells): 100%
- cell wall regeneration and cell division (maize A188 protoplasts [1]; day 20, 50 millimolar): had generated cell walls and undergone at least some cell division
- viability (soybean protoplasts; day 13, 50 millimolar calcium): 50%
- viability (soybean protoplasts; day 13, 100 millimolar calcium): 50%
- viability [2]: no large differences
- viability ([3]; 50 millimolar calcium): about 55%
- viability ([3]; 100 millimolar calcium): about 70%
- signs of cell division (maize A188 protoplasts [4]): many more protoplasts displaying signs of cell division
- % EdU (maize HiIIA protoplasts; 5% oxygen by volume, 93 hours): 12%
- % EdU (maize HiIIA protoplasts; 5% oxygen by volume, 117 hours): 19%
- % EdU (maize HiIIA protoplasts; 5% oxygen by volume, 165 hours, listed as Ca^2+): 19% and 15%
- % EdU (maize HiIIA protoplasts; 21% oxygen by volume, 93 hours): 6.5%
- % EdU (maize HiIIA protoplasts; 21% oxygen by volume, 117 hours, listed as Ca^2+): 6.9% and 8.0%
- % EdU (maize HiIIA protoplasts; 21% oxygen by volume, 141 hours, listed as Ca^2+): 13% and 4.8%
- % EdU (maize HiIIA protoplasts; 21% oxygen by volume, 165 hours, listed as Ca^2+): 5.0% and 0.0%
- EdU staining mean % (maize B104 protoplasts): 21.9%
